Laboratory results as given in patent US12226446B2, “WS-635 uses thereof in medicine” (WATERSTONE PHARMACEUTICALS(WUHAN) CO., LTD., priority 2019, dated 2025).

Key:
ROS = assay: brain ROS levels after anesthesia/surgery; design: species or system mice; conditions: mouse, in vivo
cytochrome P450 2B6 = conditions: cited from earlier work
[1] = test system: anesthesia/surgery-induced cognitive impairment; assay: Fear Conditioning Test (FCT); format: in vivo, mice; conditions: 52.8 mg/kg IP; Tone test 48 hours, Context test 7 days after anesthesia/surgery; FIG. 6A-6D
Excerpt: (§1) 9-month-old C57BL/J6 female mice were adaptive in lab for 3 days. The mice were randomly assigned to the anesthesia/surgery group or control group by weight. […] Specifically, the inventors anesthetized each of the mice using 1.4% isoflurane in 100% oxygen in a transparent acrylic chamber. Fifteen minutes after the induction, the inventors moved the mouse out of the chamber. Isoflurane anesthesia was maintained via a cone device, and one 16-gauge needle was inserted into the cone near the nose of the mouse to monitor the concentration of isoflurane. The inventors made a longitudinal midline incision from the xiphoid to the 0.5 centimeter proximal pubic symphysis on the skin, abdominal muscles and peritoneum. The inventors then sutured the incision layer by layer with 5-0 Vicryl thread.
(§2) The inventors applied EMLA cream (2.5% lidocaine and 2.5% prilocaine) to the incision site at the end of the procedure, and then every eight hours until the euthanasia of the mice, to treat the pain associated with the incision. […]
The first tone test was performed at 90 minutes after the end of the pairing. […] The “freezing behavior” was analyzed by Any-Maze (freezing on threshold: 10; freezing off threshold: 20; minimum freezing duration: one second) (Stoelting). The percentage of freezing time was calculated by dividing the actual freezing time with the observed time (180 seconds).

[2] = test system: anesthesia/surgery-induced cognitive impairment; assay: Barnes Maze Test; format: in vivo, mice; conditions: 26.4 mg/kg and 13.2 mg/kg IP; one week after anesthesia/surgery; FIG. 7A-7J
Excerpt: as §1, §2
One week after anesthesia/surgery, animals were subjected to Barnes maze to test their spatial learning and memory. […] The latency and number of errors to find the target box during each trial were recorded with the assistance of ANY-Maze video tracking system.

P-glycoprotein = P-glycoprotein (Homo sapiens, UniProt P08183); conditions: cited from earlier work
Chain of P-glycoprotein (P08183 whole entry): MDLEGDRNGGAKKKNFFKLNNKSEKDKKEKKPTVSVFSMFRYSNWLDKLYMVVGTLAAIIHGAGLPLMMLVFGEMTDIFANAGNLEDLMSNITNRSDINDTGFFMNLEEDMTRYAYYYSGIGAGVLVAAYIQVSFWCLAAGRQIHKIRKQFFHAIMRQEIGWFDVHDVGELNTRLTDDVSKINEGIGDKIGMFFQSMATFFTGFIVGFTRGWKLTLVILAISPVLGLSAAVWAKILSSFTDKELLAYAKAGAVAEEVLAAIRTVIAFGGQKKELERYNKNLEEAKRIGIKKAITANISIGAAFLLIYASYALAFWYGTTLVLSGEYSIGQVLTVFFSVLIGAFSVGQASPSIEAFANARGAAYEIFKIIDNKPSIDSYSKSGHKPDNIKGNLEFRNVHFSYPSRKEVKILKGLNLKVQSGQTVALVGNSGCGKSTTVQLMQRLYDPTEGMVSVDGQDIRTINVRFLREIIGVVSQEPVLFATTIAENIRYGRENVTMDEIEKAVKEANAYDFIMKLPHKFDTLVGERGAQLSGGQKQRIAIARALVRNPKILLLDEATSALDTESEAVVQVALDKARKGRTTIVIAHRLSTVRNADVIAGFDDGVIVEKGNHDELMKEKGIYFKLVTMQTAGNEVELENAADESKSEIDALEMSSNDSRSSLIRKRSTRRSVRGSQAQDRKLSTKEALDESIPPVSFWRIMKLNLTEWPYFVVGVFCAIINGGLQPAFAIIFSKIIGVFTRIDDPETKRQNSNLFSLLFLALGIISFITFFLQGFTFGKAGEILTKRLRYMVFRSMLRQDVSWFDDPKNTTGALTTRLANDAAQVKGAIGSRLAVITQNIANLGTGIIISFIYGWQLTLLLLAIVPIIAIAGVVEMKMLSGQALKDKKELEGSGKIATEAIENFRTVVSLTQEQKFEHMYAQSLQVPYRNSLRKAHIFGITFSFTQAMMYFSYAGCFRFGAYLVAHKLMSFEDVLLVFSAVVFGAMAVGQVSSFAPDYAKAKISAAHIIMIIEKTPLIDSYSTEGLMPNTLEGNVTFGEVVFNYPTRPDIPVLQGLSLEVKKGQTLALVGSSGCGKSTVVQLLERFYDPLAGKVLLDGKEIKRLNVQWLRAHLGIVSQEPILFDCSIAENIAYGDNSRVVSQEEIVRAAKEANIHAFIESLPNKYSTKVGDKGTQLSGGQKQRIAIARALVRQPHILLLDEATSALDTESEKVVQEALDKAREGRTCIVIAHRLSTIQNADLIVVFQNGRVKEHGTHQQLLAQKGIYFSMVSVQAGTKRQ

hepatitis C virus (HCV) [3] = conditions: two-drug combination, in vitro; cited from earlier work
[4] = multiple animal species, cited from earlier work
cyclophilin A = cyclophilin A (Homo sapiens, UniProt P62937); conditions: cited from earlier work
Chain of cyclophilin A (P62937 whole entry, species assumed): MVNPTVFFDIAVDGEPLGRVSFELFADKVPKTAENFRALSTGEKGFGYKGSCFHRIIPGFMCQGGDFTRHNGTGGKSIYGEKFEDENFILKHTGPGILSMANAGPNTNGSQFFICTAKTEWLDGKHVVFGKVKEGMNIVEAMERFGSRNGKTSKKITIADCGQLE

[5] = test system: stimulated human peripheral blood mononuclear cells; conditions: cited from earlier work
stimulated Jurkat cells = conditions: cited from earlier work
PSD-95 = assay: Western blot of brain PSD-95 after anesthesia/surgery; format: in vivo, mice; conditions: 26.4 mg/kg IP
Excerpt: as §1, with “The inventors made a longitudinal midline incision from the xiphoid to the 0.5 centimeter proximal pubic symphysis on the skin, abdominal muscles and peritoneum. The inventors then sutured the incision layer by layer with 5-0 Vicryl thread.” left out
Brain Tissue Harvest, Lysis and Protein Quantification. […] Levels of interleukin-6 (IL-6) and postsynaptic density (PSD)-95 in the cortex and hippocampus of mice will be assessed. […] The lysates will be collected, centrifuged at 10,000 rpm for 5 minutes at 4° C., and quantified for total proteins by bicinchoninic acid (BCA) protein assay kit (Pierce, Iselin, NJ). […]
Western Blot Analysis. […] Western blot quantification was performed as described. Briefly, signal intensity was analyzed using a Bio-Rad (Hercules, CA) image program (Quantity One). The inventors quantified Western blots in two steps, first, the inventors used β-Actin levels to normalize (e.g., determine the ratio of PSD-95 to β-Actin amount) protein levels and control for loading differences in the total protein amount. […]

cytochrome P450 1A2 = conditions: cited from earlier work
ATP = assay: brain ATP measurement after anesthesia/surgery; format: in vivo, mice; conditions: 26.4 mg/kg IP
Excerpt: as §1, with “thread. […]” for “thread.”
ATP Measurement. The levels of ATP in the cortex of mice (N=6 in each group) were determined by the ATP Colorimetric/Fluorometric Assay Kit following the protocol provided by the manufacturer (Abcam, Cambridge, MA). […] The amount of fluorescence will be measured and the levels of ATP in the experimental samples will be calculated from the standard curve made from samples containing a known amount of ATP.

hepatitis C virus (HCV) [6] = conditions: in vitro; cited from earlier work
synaptophysin = assay: Western blot of brain synaptophysin after anesthesia/surgery; format: in vivo, mice; conditions: 26.4 mg/kg IP
calcineurin = conditions: at concentrations up to 2 μM; cited from earlier work
IL-6 = assay: brain IL-6 levels after anesthesia/surgery; design: species or system mice; conditions: mouse, in vivo
Method: Brain Tissue Harvest, Lysis and Protein Quantification. Different mice will be used for the harvest of brain tissue. Levels of interleukin-6 (IL-6) and postsynaptic density (PSD)-95 in the cortex and hippocampus of mice will be assessed. The brain tissues (cortex and hippocampus) of the mice will be harvested immediately at the end of the anesthesia/surgery by decapitation. The harvested brain tissues will be homogenized on ice using immunoprecipitation buffer (10 mM Tris-HCl, pH 7.4, 150 mM NaCl, 2 mM EDTA, 0.5% Nonidet P-40) plus protease inhibitors ([…]). The lysates will be collected, centrifuged at 10,000 rpm for 5 minutes at 4° C., and quantified for total proteins by bicinchoninic acid (BCA) protein assay kit (Pierce, Iselin, NJ). The brain tissues will then be subjected to Western Blot.

cytochrome P450 3A4 = conditions: cited from earlier work

In the case of `C/C=C/C[C@@H](C)[C@@H](O)[C@H]1C(=O)N[C@@H](CC)C(=O)N(C)[C@H](SCCN(C)C)C(=O)N(C)[C@@H](CC(C)(C)O)C(=O)N[C@@H](C(C)C)C(=O)N(C)[C@@H](CC(C)C)C(=O)N[C@@H](C)C(=O)N[C@H](C)C(=O)N(C)[C@@H](CC(C)C)C(=O)N(C)[C@@H](CC(C)C)C(=O)N(C)[C@@H](C(C)C)C(=O)N1C` [WS-635, (3S,6S,9S,12R,15S,18S,21S,24S,27R,30S,33S)-27-((2-(dimethylamino)ethyl)thio)-30-ethyl-33-((1R,2R,E)-1-hydroxy-2-methylhex-4-en-1-yl)-24-(2-hydroxy-2-methylpropyl)-6,9,18-tri isobutyl-3,21-diisopropyl-1,4,7,10,12,15,19,25,28-nonamethyl-1,4,7,10,13,16,19,22,25,28,31-undecaazacyclotritriacontan-2,5,8,11,14,17,20,23,26,29,32-undecaone], the “anesthesia/surgery-induced changes in brain levels of ROS” value (ROS) is given as “attenuate”, the “induction of cytochrome P450 2B6” value (cytochrome P450 2B6) is given as “did not induce” and the “anesthesia/surgery-induced reduction in freezing time” value [1] is given as “mitigated”. For the same molecule, the “anesthesia/surgery-induced decrease in escape speed” value [2] was “mitigated”, the “anesthesia/surgery-induced increase in escape latency” value [2] was “mitigated” and the “inhibition of P-glycoprotein” value (P-glycoprotein) was “weak inhibitor”. The “substrate for P-glycoprotein” value (P-glycoprotein) was “poor substrate”, the “antiviral activity in combination with alpha interferon 2b” value (hepatitis C virus (HCV) [3]) was “synergistic antiviral activity” and the “antiviral activity in combination with ribavirin” value (hepatitis C virus (HCV) [3]) was “additive antiviral activity”. For the same molecule, the oral bioavailability [4] was “orally bioavailable”, the “blood and liver concentrations of parent drug versus 50% effective dose in replicon assay” value ([4]; oral) was “exceeded the 50% effective dose” and the “inhibition of peptidyl prolyl isomerase activity of cyclophilin A” value (cyclophilin A) was “nanomolar concentrations”. The “inhibition of interleukin-2 secretion compared with cyclosporine” value [5] was “weaker inhibitor”, the “inhibition of interleukin-2 secretion compared with cyclosporine” value (stimulated Jurkat cells) was “weaker inhibitor” and the “anesthesia/surgery-induced decrease of PSD-95 level in cortex” value (PSD-95; cortex, FIG. 3) was “mitigate”. The “anesthesia/surgery-induced decrease of PSD-95 level in hippocampus” value (PSD-95; hippocampus, FIG. 4) was “mitigate”, the “induction of cytochrome P450 1A2” value (cytochrome P450 1A2) was “did not induce” and the “anesthesia/surgery-induced decrease of ATP level in cortex” value (ATP; cortex, FIG. 5A) was “mitigate”. For the same molecule, the “anesthesia/surgery-induced decrease of ATP level in hippocampus” value (ATP; hippocampus, FIG. 5B) was “mitigate”, the “suppression of HCV replication” value (hepatitis C virus (HCV) [6]) was “potent suppression” and the “anesthesia/surgery-induced decrease of synaptophysin level in cortex” value (synaptophysin; cortex, FIG. 3) was “mitigate”. The “anesthesia/surgery-induced decrease of synaptophysin level in hippocampus” value (synaptophysin; hippocampus, FIG. 4) was “mitigate”, the “inhibition of calcineurin phosphatase activity” value (calcineurin) was “no detectable inhibition” and the “anesthesia/surgery-induced changes in brain levels of IL-6” value (IL-6) was “attenuate”. For the same molecule, the “induction of cytochrome P450 3A4” value (cytochrome P450 3A4) was “did not induce”.
